Test results reported in patent US10519446B2, “Organic compounds to treat hepatitis B virus” (priority 2013, dated 2019).
Like-named read-outs stand apart in the source and are kept apart here.

Tests used:
HBV = test: Efficacy of HBV RNAi agents in HepG2.2.15 cells in vitro (sAg KD); assay type: cell-based, Hepatitis B Virus; settings: for Max % KD, EXPERIMENT 1 / Max % KD, EXPERIMENT 2: percent knockdown; for Percent sAg remaining at maximum knockdown: percent residual gene activity
Protocol: Table 9. Efficacy of HBV RNAi agents.
The efficacy of various HBV RNAi agents was tested in HepG2.2.15 cells in vitro. 10 μM was used. […] It is noted that, due to the nature of the HepG2.2.15 cell line, it is difficult to achieve greater than 50% knockdown.

FVII (Factor VII) = test: RNA interference against FVII by 19-mer siRNAs with 3′ end caps (FIG. 2); parameters: species or system mouse; settings: mF7-III 19-mer blunt-ended, A12S17
[1] = Serum stability of siRNAs with 3′ end caps in mouse serum; assay type: in vitro ADME; settings: 100% mouse serum; 37° C.; up to 24 h; gel, SYBR gold
[2] = Serum stability of siRNAs with 3′ end caps in human serum; assay type: in vitro ADME; settings: 100% human serum; 37° C.; up to 24 h; gel, SYBR gold
[3] = Experiment 2, HepG2.2.15 cells, nM printed only at the Experiment 1 and AVERAGE EC50 heads, read-out: EC50, EXPERIMENT 2
[4] = HepG2.2.15 cells in vitro, Experiment 1, read-out: EC50 (nM), EXPERIMENT 1
[5] = average of Experiments 1 and 2, read-out: EC50 (nM), AVERAGE

Row | Molecule | Max % KD, EXPERIMENT 1 (HBV; Experiment 1, HepG2.2.15 cells) [%] | Percent sAg remaining at maximum knockdown (HBV; Experiment 1, HepG2.2.15 cells) [%] | EC50 (HBV; [3]) [nM] | Max % KD, EXPERIMENT 2 (HBV; Experiment 2, HepG2.2.15 cells) [%] | Percent sAg remaining at maximum knockdown (HBV; Experiment 2, HepG2.2.15 cells) [%] | EC50 (HBV; [4]) [nM] | Max % KD, AVERAGE (HBV; average of Experiments 1 and 2) [%] | EC50 (HBV; [5]) [nM] | RNA interference against FVII (FVII (Factor VII)) | stability in mouse serum [1] | stability in human serum [2]
1 | 3: "HBV RNAi agents numbered 1 to 10"; "The RNAi agents used are listed in Table 8E" (18-mer format) (sense CCAUACUGCGGAACUCCUA; antisense UAGGAGUUCCGCAGUAUGG; chemistry not given here) [Number 3] | 49.8 | 50.2 | 0.016 | 38.7 | 61.3 | 0.111 | 44.25 | 0.06 |  |  | 
2 | C1C2CC3CC1CC(C2)C3 [Adamantane] |  |  |  |  |  |  |  |  | allow the RNAi agent to perform RNA interference |  | 
3 | 11: "An 18-mer ... with the sequences of Number 11E in Table 10"; "an additional HBV RNAi agent, HBV 279" (sense GGUUCUUCUGGAUUAUCAA; antisense UUGAUAAUCCAGAAGAACC; chemistry not given here) | 65.39 | 34.61 | 0.105 | 54 | 46 | 0.039 | 59.695 | 0.07 |  |  | 
4 | 5: "One sequence used was designated siHBV_1599_18mer_CAM, and corresponds to Number 5 in Table 8E" (sense CCGUGUGCACUUCGCUUCA; antisense UGAAGCGAAGUGCACACGG; chemistry not given here) | 41.3 | 58.7 | 0.013 | 37.8 | 62.2 | 0.127 | 39.55 | 0.07 |  |  | 
5 | OCCOCCOCCO [Triethylene glycol] |  |  |  |  |  |  |  |  | allow the RNAi agent to perform RNA interference |  | 
6 | C[C@H](CCC(=O)O)[C@H]1CC[C@H]2[C@@H]3CC[C@@H]4C[C@H](O)CC[C@]4(C)[C@H]3CC[C@]12C [lithochol, lithocholic acid] |  |  |  |  |  |  |  |  |  | increased stability | less stable
7 | 6: "HBV RNAi agents numbered 1 to 10"; "The RNAi agents used are listed in Table 8E" (18-mer format) (sense GGCUGUAGGCAUAAAUUGG; antisense CCAAUUUAUGCCUACAGCC; chemistry not given here) [Number 6] | 37.3 | 62.7 | 0.13 | 39 | 61 | 0.008 | 38.15 | 0.07 |  |  | 
8 | 7: "HBV RNAi agents numbered 1 to 10"; "The RNAi agents used are listed in Table 8E" (18-mer format) (sense GCUGUAGGCAUAAAUUGGU; antisense ACCAAUUUAUGCCUACAGC; chemistry not given here) [Number 7] | 41.5 | 58.5 | 0.409 | 40.3 | 59.7 | 0.038 | 40.9 | 0.22 |  |  | 
9 | 4: "HBV RNAi agents numbered 1 to 10"; "The RNAi agents used are listed in Table 8E" (18-mer format) (sense GAGGCUGUAGGCAUAAAUU; antisense AAUUUAUGCCUACAGCCUC; chemistry not given here) [Number 4] | 43.3 | 56.7 | 0.056 | 48.6 | 51.4 | 0.017 | 45.95 | 0.04 |  |  | 
10 | 12: "Twelve of the best HBV RNAi agents identified are listed below, in various formats, in Tables 8A-8E, 9 and 10" (sense GGACUUCUCUCAAUUUUCU; antisense AGAAAAUUGAGAGAAGUCC; chemistry not given here) [Number 12] | 36.89 | 63.11 |  |  |  | 0.093 | 36.89 | 0.093 |  |  | 
11 | OCCOCCOCCO [glycol, triethylene glycol] |  |  |  |  |  |  |  |  |  | increased stability | increased stability
12 | c1ccc(-c2ccccc2)cc1 [Biphenyl] |  |  |  |  |  |  |  |  | allow the RNAi agent to perform RNA interference | increased stability | increased stability
13 | 8: "HBV RNAi agents numbered 1 to 10"; "The RNAi agents used are listed in Table 8E" (18-mer format) (sense CAGCAAUGUCAACGACCGA; antisense UCGGUCGUUGACAUUGCUG; chemistry not given here) [Number 8] | 37.5 | 62.5 | 0.177 | 57.8 | 42.2 | 0.025 | 47.65 | 0.1 |  |  | 
14 | 9: "HBV RNAi agents numbered 1 to 10"; "The RNAi agents used are listed in Table 8E" (18-mer format) (sense GGAGGCUGUAGGCAUAAAU; antisense AUUUAUGCCUACAGCCUCC; chemistry not given here) [Number 9] | 48.8 | 51.2 | 0.67 | 50 | 50 | 0.131 | 49.4 | 0.4 |  |  | 
15 | 10: "HBV RNAi agents numbered 1 to 10"; "The RNAi agents used are listed in Table 8E" (18-mer format) (sense GAGAUUAGGUUAAAGGUCU; antisense AGACCUUUAACCUAAUCUC; chemistry not given here) [Number 10] | 57.3 | 42.7 | 0.437 | 50.9 | 49.1 | 0.066 | 54.1 | 0.25 |  |  | 
